Patent US11926837B2, “Compositions and methods for controlling plant growth” (PLANTARC BIO LTD., priority 2019, dated 2024)

T1: Arabidopsis thaliana HPPD (AtHPPD) (Arabidopsis thaliana, UniProt P93836)
T1 construct: expressed in transfected cells; host or cells: E. coli BL21 (DE3), pET16 vector
T1 sequence (P93836 1-445): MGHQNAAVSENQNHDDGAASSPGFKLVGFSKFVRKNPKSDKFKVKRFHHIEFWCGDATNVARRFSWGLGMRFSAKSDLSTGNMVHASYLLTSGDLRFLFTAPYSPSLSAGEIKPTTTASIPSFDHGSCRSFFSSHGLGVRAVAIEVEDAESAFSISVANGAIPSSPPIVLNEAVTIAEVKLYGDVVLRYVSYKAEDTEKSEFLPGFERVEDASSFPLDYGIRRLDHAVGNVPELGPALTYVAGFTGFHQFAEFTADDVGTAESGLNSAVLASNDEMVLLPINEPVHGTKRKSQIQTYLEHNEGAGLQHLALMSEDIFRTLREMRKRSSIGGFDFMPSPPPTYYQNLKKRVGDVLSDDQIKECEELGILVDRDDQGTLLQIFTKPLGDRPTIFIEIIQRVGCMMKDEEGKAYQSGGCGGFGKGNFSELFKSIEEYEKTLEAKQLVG


Assays:
[1] = system: Arabidopsis plants transformed with Trichoderma spp-HPPD gene; assay: In-planta screen of plants transformed with fungal HPPD; assay type: in vivo
Procedure: The hppd coding region was cloned into pPA35H binary vector under the control of the CaMV35S constitutive promoter and HSP terminator and was used to transform Arabidopsis plants using agrobacterium according to the dipping flower method, as essentially described in WO 2018/178975. […] 3-4 days post germination, plants were treated with 0.1% and 0.05% Tembotrione (Laudis (Bayer)). HPPD resistant plants were detected one-week post germination.

[2] = system: Arabidopsis control (wt, non-transformed) plants; assay: In-planta screen, control (non-transformed, wt) plants; assay type: in vivo
Source text: The hppd coding region was cloned into pPA35H binary vector under the control of the CaMV35S constitutive promoter and HSP terminator and was used to transform Arabidopsis plants using agrobacterium according to the dipping flower method, as essentially described in WO 2018/178975. T1 generation transformed seeds were germinated on Basta selection (Bayer) according to manufacturer instructions. […] HPPD resistant plants were detected one-week post germination.

[3] = system: HPPD derived from the novel Trichoderma fungus (TP); assay: Bacterial HPPD-activity assay, E. coli BL21 (DE3) transformed with Trichoderma HPPD, brown halo; assay type: cell-based, Trichoderma spp.; conditions: E. coli BL21 (DE3) on agar screen plates, 25° C., 4 days
Procedure: (§1) E. coli BL21 (DE3) were transformed with the expression vector and monitored for HPPD activity using a colorimetric method as essentially explained in Rocaboy-Faquet. E. et al. (DOI: 10.1007/s00253-014-5793-5) with two minor modifications, namely: 1) The transformed bacteria were inoculated on an agar based medium instead of a liquid medium; 2) The screen was performed at 25° C. for 4 days.
(§2) The screen media was prepared with a concentration gradient of HPPD inhibitors at the indicated concentrations and the transformed bacteria were inoculated on the screening agar plates. HPPD activity was detected by a brown halo resulting from the HPPD-mediated conversion of p-hydroxyphenylpyruvate (HPP) into homogentisate (HGA), which later is oxidized to a melanin-like pigment. Tembotrione resistance of the transformed bacteria was compared to that of plates inoculated with E. coli BL21 (DE3) transformed with either an empty pET16 vector or a pET16 vector transformed with Arabidopsis thaliana hppd cDNA (accession no. AF047834).

G. max HPPD = assay: HPPD-activity screen of soy HPPD mutants in E. coli BL21 (DE3); assay type: cell-based
Source text: A brown halo is indicative of HPPD activity • GmHPPD SEQ ID NO: 118 ([…] […] […] […] […] […] […] AADVLTVDQIKQCEELGILVDRDDQGTLLQIFTKPVGDRPTIFIXIIQRIGC […]), the native G. max HPPD (Accession number: ABQ96868) • GmHPPD.1=GmHPPD (SEQ ID NO: 118) mutated to substitute its motif 1 with motif 1 of SEQ ID NO: 1—i.e. to include amino acid sequences SEQ ID NO: 9-10 or 38; • GmHPPD.2=GmHPPD (SEQ ID NO: 118) mutated to substitute its motif 6.2 (SEQ ID NO: 68) first Y with motif 6.2 of SEQ ID NO: 1 (SEQ ID NO: 20)—i.e. to include the mutation Tyr185Phe to include SEQ ID NO: 157; • GmHPPD.4=GmHPPD (SEQ ID NO: 118) mutated to substitute its motif 2.1 (SEQ ID NO: 57) with motif 2.1 of SEQ ID NO: 1 (SEQ ID NO: 11)—i.e. to include the mutation Ala254Trp to include SEQ ID NO: 129.

Camelina plants = assay: In-planta screen of soy HPPD mutants; assay type: in vivo; conditions: T1 Camelina, Laudis (Tembotrione) 0.075% three days post seeding, images 19 days post treatment
Procedure: T1 generation transformed seeds of Camelina plants with the Soy HPPD (GmHPPD) mutated gene as compared to wt. Plant were treated with Laudis (Tembotrione) 0.075% three days post seeding. EGFP transformed plants were used as control. Images taken 19 days post treatment. The following were tested: • GmHPPD—SEQ ID NO: 118 the native G. max HPPD (Accession number: ABQ96868) • GmHPPD.1=GmHPPD (SEQ ID NO: 118) mutated to substitute its motif 1 with motif 1 of SEQ ID NO: 1—i.e. to include amino acid sequences set forth in SEQ ID NO: 9-10 or 38; • GmHPPD.2=GmHPPD (SEQ ID NO: 118) mutated to substitute its motif 6.2 (SEQ ID NO: 68) first Y with motif 6.2 of SEQ ID NO: 1 (SEQ ID NO: 20)—i.e. to include the mutation Tyr185Phe to include SEQ ID NO: 157; • GmHPPD.3=GmHPPD (SEQ ID NO: 118) mutated to substitute its motif 7.2 (SEQ ID NO: 70) first Y with motif 7.2 of SEQ ID NO: 1 (SEQ ID NO: 22)—i.e. to include the mutation Tyr243Phe; • GmHPPD.4=GmHPPD (SEQ ID NO: 118) mutated to substitute its motif 2.1 (SEQ ID NO: 57) with motif 2.1 of SEQ ID NO: 1 (SEQ ID NO: 11)—i.e. to include the mutation Ala254Trp to include SEQ ID NO: 129; • GmHPPD.5=GmHPPD (SEQ ID NO: 118) mutated to substitute its motif 3.1 with motif 3.1 of SEQ ID NO: 1—i.e. to include the replacement mutations 338-MPSPPP-343 to INVPG.

[4] = target: T1, Arabidopsis thaliana HPPD (AtHPPD); assay: Bacterial HPPD-activity assay, E. coli BL21 (DE3) transformed with Arabidopsis thaliana hppd cDNA; assay type: cell-based; conditions: E. coli BL21 (DE3) on agar plates with concentration gradient of HPPD inhibitors, 25° C., 4 days
Procedure: as §1, §2

[5] = T2 generation, Tembotrione x1=2500 and x0.2=500 μg/ml, Mesotrione x1=50 μg/ml, Topramezon x1=150 and x0.2=30 μg/ml, Isoxaflutole x1=50 μg/ml
[6] = control (wt plants), Tembotrione 2500 and 500 μg/ml, Mesotrione 50 μg/ml, Topramezon 150 and 30 μg/ml, Isoxaflutole 50 μg/ml

Molecule	plant growth in the presence of the herbicide [1, 5]	plant growth in the presence of the herbicide [2, 6]	other results
CS(=O)(=O)c1cc(C(F)(F)F)ccc1C(=O)c1cnoc1C1CC1 [Isoxaflutole, isoxaflutole]	enabled growth	no plant growth or an acute growth inhibition and leaf bleaching	
CS(=O)(=O)c1ccc(C(=O)C2C(=O)CCCC2=O)c([N+](=O)[O-])c1 [Mesotrione, mesotrione]	enabled growth	no plant growth or an acute growth inhibition and leaf bleaching	
Cc1nn(C)c(OCC(=O)c2ccccc2)c1C(=O)c1ccc(Cl)cc1Cl [Pyrazoxyfen, pyrazoxyfen]			HPPD inhibitor concentration on plates at which HPPD activity (brown halo) was still detected [3]: ≤ 1250 µg/mL
CS(=O)(=O)c1ccc(C(=O)C2C(=O)CCCC2=O)c(Cl)c1COCC(F)(F)F [Tembotrione, tembotrione]	enabled growth	no plant growth or an acute growth inhibition and leaf bleaching	plant growth in the presence of the herbicide ([1]; T1 plants on Basta selection, 0.1% and 0.05% Tembotrione (Laudis) 3-4 days post germination): enabled growth; plant growth in the presence of the herbicide ([2]; control (non-transformed), 0.1% and 0.05% Tembotrione (Laudis)): no plant growth
Cc1c(C(=O)c2cnn(C)c2O)ccc(S(C)(=O)=O)c1C1=NOCC1 [Topramezone, topramezone]	enabled growth	no plant growth or an acute growth inhibition and leaf bleaching	
GmHPPD: the native G. max HPPD (Accession number: ABQ96868) (protein, not fully specified; X: residue not identified in the source) MPIPCNEIQAQAQAQAQPGFKLVGFKNFVRTNPKSDRFQVNRFHHIEFWCTDATNASRRFSWGLGMPIVAKSDLSTGNQIHASYLLRSGDLSFLFSAPYSPSLSAGSSAASSASIPSFDAATCLAFAAKHGFGVRAIALEVADAEAAFSASVAKGAEPASPPVLVDDRTGFAEVRLYGDVVLRYVSYKDAAPQAPHADPSRWFLPGFEAAASSSSFPELDYGIRRLDHAVGNVPELAPAVRYLKGFSGFHEFAEFTAEDVGTSESGLNSVVLANNSETVLLPLNEPVYGTKRKSQIETYLEHNEGAGVQHLALVTHDIFTTLREMRKRSFLGGFEFMPSPPPTYYANLHNRAADVLTVDQIKQCEELGILVDRDDQGTLLQIFTKPVGDRPTIFIXIIQRIGCMVEDEEGKVYQKGACGGFGKGNFSELFKSIEEYEKTLEAKRTA			HPPD enzymatic activity (brown halo) (G. max HPPD; 5 μM tembotrione): only minor enzymatic activity; HPPD enzymatic activity (brown halo) (G. max HPPD; 10 μM tembotrione): essentially no enzymatic activity; herbicide tolerance of transformed plants (Camelina plants): highly damaged
AtHPPD: HPPD from Arabidopsis thaliana hppd cDNA (accession no. AF047834) (protein, UniProt P93836 1-445, looked up) 4-hydroxyphenylpyruvate …: MGHQNAAVSENQNHDDGAASSPGFKLVGFSKFVRKNPKSDKFKVKRFHHIEFWCGDATNVARRFSWGLGMRFSAKSDLSTGNMVHASYLLTSGDLRFLFTAPYSPSLSAGEIKPTTTASIPSFDHGSCRSFFSSHGLGVRAVAIEVEDAESAFSISVANGAIPSSPPIVLNEAVTIAEVKLYGDVVLRYVSYKAEDTEKSEFLPGFERVEDASSFPLDYGIRRLDHAVGNVPELGPALTYVAGFTGFHQFAEFTADDVGTAESGLNSAVLASNDEMVLLPINEPVHGTKRKSQIQTYLEHNEGAGLQHLALMSEDIFRTLREMRKRSSIGGFDFMPSPPPTYYQNLKKRVGDVLSDDQIKECEELGILVDRDDQGTLLQIFTKPLGDRPTIFIEIIQRVGCMMKDEEGKAYQSGGCGGFGKGNFSELFKSIEEYEKTLEAKQLVG			HPPD activity (brown halo) on HPPD inhibitor plates [4]: poor HPPD activity if at all
